# Measurements: patent US11234984B2, “Solid dispersion” (Shizuoka Prefectural University Corporation, priority 2017, dated 2022)
# Like-named read-outs stand apart in the source and are kept apart here.
# Key:
# [1] = Test Example 1. Solubility Test; format: physicochemical; details: thermodynamic from solid, shaken at 37° C. for 2 hours, mean of two measurements, read-out: Solubility of Compound A
# Procedure: 5 mL of a first fluid (pH1.2) or 5 mL of a […] for an elution test in Japanese Pharmacopoeia was added to the solid dispersions of Example 1 and Comparative Examples 1 to 8, and the sample of Comparative Example 9, the solid dispersions were ground using a glass rod or a spatula, and then shaken at 37° C. for 2 hours. 400 μL of a mixed solution (acetonitrile/water=3/2) was immediately added to 600 μL of the sample solution filtered off using a 0.45 μm filter, and a concentration of the compound A in the sample solution was measured by HPLC (Shimadzu Corporation). Here, values in the table are the mean values obtained by repeating measurements twice.
# [2] = Test Example 2. Absorbability of the solid dispersion containing the compound A in rats; format: in vivo; details: male, Crl:CD (SD), rat, plasma, po, 30 mg/kg, single dose 30 mg/kg as compound A, mean ± SD n=3
# Procedure: A single dose of 10 mg/kg or 30 mg/kg, as the compound A, of the solid dispersions of Example 2 and Comparative Example 10, and the sample of Comparative Example 11 suspended in a 1% carboxymethylcellulose aqueous solution was orally administered to fasted male rats (8 weeks old, Crl:CD (SD), Japan Charles River Laboratories). A crystalline form of the compound A was used as a control (Comparative Example 12). A collection time was 0.5, 1, 2, 4, 8, and 24 hours after administration, and about 300 μL of blood was collected at each time point from vena caudalis (n=3). The obtained blood was centrifuged at 1500×g, 4° C. for 15 minutes to obtain a plasma. The concentration of the compound A in the plasma was measured by HPLC (Shiseido and Hitachi High-Technologies Corporation). A time to reach the highest concentration in the plasma (Tmax), the highest concentration in the plasma (Cmax) and an area under the plasma concentration-time curve (AUC) were calculated from the change in the concentration in the obtained plasma. Here, values in the table are the mean value±standard deviation of three examples.
Structure (SMILES),"solubility at 2 h ([1]; pH 1.2, simulated gastric fluid, First fluid for dissolution test (pH1.2)) [µg/mL]","solubility at 2 h ([1]; pH 6.8, aqueous buffer, Second fluid for dissolution test (pH6.8)) [µg/mL]",Tmax [2] [h]
"N#Cc1cc(-c2nc3c(O)ncnc3s2)ccc1Oc1ccccc1 [Comparative Example 9, 2-(3-cyano-4-phenoxyphenyl)-7-hydroxythiazolo[5,4-d]pyrimidine]",0.39,0.49,–
"N#Cc1cc(-c2nc3c(O)ncnc3s2)ccc1Oc1ccccc1 [Comparative Example 11, 2-(3-cyano-4-phenoxyphenyl)-7-hydroxythiazolo[5,4-d]pyrimidine]",–,–,3.7 ± 3.8
